Patent publication US6908628B2, “Disinfectant and antiseptic composition” (priority 2001, dated 2005)

Columns and labels:
Assay type in all cases: cell-based
[1] = tested on: S. aureus, S. epidermidis, E. faecalis, E. coli, K. pneumoniae, E. cloacae, P. mirabilis, Acinetobacter baumanii, P. aeruginosa, C. albicans, Mycobacterium …; assay: Bactericidal effect on endodontic files, whole panel of Example 1; conditions: 20 minutes
Method: For the determination of these three effects, the methods described by Herruzo et al in 1999 were used (Rev Stomatol Chir maxillofac 1999; 100: 299-305), which may be resumed as follows: • a) Bactericidal effect on instruments difficult to disinfect: No. 25 endodontic files.
These files are contaminated in a micro-organism for 30 minutes and after drying for 15 minutes in an oblique position, they are introduced in the disinfectant for 5, 10, 15, 20, etc. minutes. Afterwards, they are removed and submerged in a tube with glass beads and a disinfectant inhibitor (broth plus 6% Tween 80, plus 0.5% sodium bisulphite and 0.5% sodium thiosulphate). The tubes are then stirred for 1 minute to detach the surviving micro-organisms, and samples are cultured over the entire surface of agar plates with the culture medium suitable for the tested micro-organism (Müeller-Hinton or Saboureaud-dextrose for yeasts or HIB for mycobacteria, etc.). […] It is recorded if there was any deterioration or not and the time at which it occurred. […]

[2] = tested on: spores of B subtilis; assay: Sporicidal effect on commercial cellulose germ holder; conditions: reference disinfectant as such; 10 minutes
Method: In this case, another more demanding test was used, since the sporicidal effect was assessed. It is similar to the bactericidal effect, but instead of contaminated instruments, a commercial, cellulose germ holder was used, impregnated in spores. In fact, this is the biological control used in sterilisation by ethylene oxide: spores of B subtilis, at a concentration guaranteed by the manufacturer (3M) and which exceed a million spores per germ holder. The rest was similar to that described in the endodontic file method.

[3] = tested on: P. aeruginosa; assay: MIC in a solid medium; conditions: expressed as dilution of the product
Excerpt: (§1) This is shown by means of its MIC (minimum inhibiting concentration).
(§2) A MIC is obtained in a solid medium against S. aureus and P. aeruginosa.

[4] = tested on: S. aureus; assay: MIC in a solid medium; conditions: expressed as dilution of the product
Excerpt: as §1, §2

## O=CCCCC=O [2% glutaraldehyde, glutaraldehyde]
[1]
  bactericidal effect against Mycobacterium: did not completely destroyed the inoculum
[2]
  reduction of the spore inoculum: 1.5 log 10

## [H]/N=C(\N/C(=N/[H])NCCCCCCNC(=N)NC(=N)Nc1ccc(Cl)cc1)Nc1ccc(Cl)cc1 [Clo, Chlorhexidine]
[3]
  MIC (minimum inhibiting concentration): 1/2560
[4]
  MIC (minimum inhibiting concentration): 1/20480

## Didecyl-metyl-polyoxy-ethyl-ammonium propionate
[3]
  MIC (minimum inhibiting concentration): 1/160
[4]
  MIC (minimum inhibiting concentration): 1/20480
